Literature values, collected in patent US20130011354A1, “Compositions For Enhancing Hair Growth” (Allergan, Inc., priority 2009, published 2013).

System: eyelashes
Conditions: Lumigan ophthalmic solution applied in the FDA approved manner for glaucoma

Q: For `CCNC(=O)CCC/C=C\C[C@@H]1[C@@H](/C=C/[C@@H](O)CCc2ccccc2)[C@H](O)C[C@@H]1O` [Bimatoprost, cyclopentane N-ethyl heptanamide-5-cis-2-(3α-hydroxy-5-phenyl-1-trans-pentenyl)-3,5-dihydroxy, [1α,2β,3α,5α]], which growth of eyelashes is on record?
A: effective to increase the growth of eyelashes
